Patent publication US20030143757A1, “Methods for identifying drug cores” (priority 1997, published 2003)

Biological target: p38 MAP kinase (Homo sapiens, UniProt Q16539)
Settings: 1 mM each drug core, 0.2 mM p38 MAP kinase, 5° C., pD* 8.4, relaxation filter
Experimental: All the spectra were acquired at 5° C. using a Bruker DMX 500 MHz NMR spectrometer. NOESY spectra were collected using 16 transients with 2048 points in ω2 and 400 points in ω1 and a mixing time of 400 ms for the drug core mixture in the absence of target and 100 ms for the drug core mixture in the presence of p38. A spin echo with an echo delay of 5 ms was used as a relaxation filter before the t1 evolution period in all experiments. Samples contained 1 mM of each drug core, 0.2 mM p38 MAP kinase, 25 mM deutero-Tris, 10% (v/v) deutero-glycerol, 20 mM deutero-dithiothreitol at pD*=8.4.

Sequence of p38 MAP kinase (Q16539 whole entry): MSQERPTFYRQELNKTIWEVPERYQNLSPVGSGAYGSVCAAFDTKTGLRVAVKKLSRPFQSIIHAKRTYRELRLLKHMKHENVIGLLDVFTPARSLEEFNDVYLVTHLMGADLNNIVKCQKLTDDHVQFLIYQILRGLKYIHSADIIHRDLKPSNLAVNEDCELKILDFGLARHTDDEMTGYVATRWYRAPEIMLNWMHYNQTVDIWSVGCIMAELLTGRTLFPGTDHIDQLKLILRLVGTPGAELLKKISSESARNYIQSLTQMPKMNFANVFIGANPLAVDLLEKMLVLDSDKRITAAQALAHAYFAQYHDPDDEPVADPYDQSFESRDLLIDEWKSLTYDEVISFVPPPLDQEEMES

- binding to p38 MAP kinase by line broadening and peak height attenuation in 1D NMR: does not
SMILES: O=C(O)c1cccnc1 [nicotinic acid]
